Measured values published in PubChem BioAssay (NCI).
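A five-concentration, 48-hour dose response in 96-well plates underlies each endpoint, interpolated linearly between surrounding concentrations. GI50 is the concentration that inhibits growth by half. TGI is the concentration that stops growth completely.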

Legend:
Experiment in all cases: inhibition of tumour cell growth, NCI panel, 48 h
[1] = test system: MOLT-4 leukemia
[2] = test system: NCI-H460 lung
[3] = test system: OVCAR-8 ovarian
[4] = test system: U251 CNS
[5] = test system: 786-0 renal
[6] = test system: NCI-H522 lung
[7] = test system: SW-620 colon
[8] = test system: M14 melanoma
[9] = test system: OVCAR-5 ovarian
[10] = test system: T-47D breast

| SMILES | TGI [1] [µM] | TGI [2] [µM] | TGI [3] [µM] | TGI [4] [µM] | TGI [5] [µM] | TGI [6] [µM] | TGI [7] [µM] | TGI [8] [µM] | TGI [9] [µM] | GI50 [1] [µM] | GI50 [2] [µM] | GI50 [3] [µM] | GI50 [4] [µM] | GI50 [5] [µM] | GI50 [6] [µM] | GI50 [7] [µM] | GI50 [9] [µM] | GI50 [10] [µM] | TGI [10] [µM] | GI50 [8] [µM] |
| --- | --- | --- | --- | --- | --- | --- | --- | --- | --- | --- | --- | --- | --- | --- | --- | --- | --- | --- | --- | --- |
| C/C(=C\c1ccccc1)C(O)C(=O)c1nc2ccc(Cl)cc2[nH]c1=O (stereo not drawn) | > 100 | > 100 | > 100 | > 100 | > 100 | > 100 | > 100 | > 100 | > 100 | – | – | – | – | – | – | – | – | – | – | – |
| OC[C@H]1C[C@](O)(c2ccc(F)cc2)[C@@H](c2ccc(F)cc2)O1 | > 100 | > 100 | > 100 | > 100 | > 100 | > 100 | > 100 | – | > 100 | > 100 | > 100 | > 100 | > 100 | > 100 | > 100 | > 100 | > 100 | – | – | – |
| CCN1CCN(CC(=O)Nc2nc3ccc(NCc4ccc(Br)cc4)cc3s2)CC1 | – | – | > 100 | 3.79 | 3.5 | – | – | 3.63 | – | – | – | 3.25 | 1.92 | 1.85 | – | – | – | 1.75 | 4.55 | 1.72 |
| CC1(C)CC(=O)C(C(=O)Nc2cccs2)=C(O)C1 | 88.1 | > 100 | > 100 | > 100 | > 100 | > 100 | > 100 | > 100 | > 100 | – | – | – | – | – | – | – | – | – | – | – |
| CN(C)c1ccc(/C=N/N=C(\C#N)[S][Sn]([Cl])([c]2ccccc2)[c]2ccccc2)cc1 | 5.32 | 4.75 | 4.91 | 3.2 | 2.83 | 0.369 | 2.45 | 3.38 | 3.24 | 0.876 | 2.18 | 2.15 | 1.78 | 1.48 | 0.127 | 0.853 | 1.59 | – | – | 1.72 |
| CCCCCNC(=O)CCCCCCCCCCCNC(=O)CCCCCCCCCCN1C=CC(=CC=C2C=CC(=O)C=C2)C=C1 | > 100 | > 100 | > 100 | > 100 | > 100 | > 100 | > 100 | > 100 | > 100 | – | – | – | – | – | – | – | – | – | – | – |
| COc1ccc2cc3n(c(=O)c2c1)CCc1c-3cc(OC)c(OC)c1OC | > 100 | – | > 100 | > 100 | > 100 | > 100 | > 100 | > 100 | > 100 | – | – | – | – | – | – | – | – | – | – | – |
| COc1ccc(C(C)Nc2cc(OC)c(OC)c(OC)c2)cc1 (stereo not drawn) | > 100 | > 25.5 | > 100 | 10 | > 100 | 17.6 | > 100 | > 100 | > 100 | – | – | – | – | – | – | – | – | – | – | – |
| O=C1Nc2ccc(Cl)cc2/C1=N/c1nc(-c2ccc(Cl)cc2)cs1 | > 100 | – | – | 4.65 | 3.7 | – | 4.29 | 2.82 | 4.43 | 1.61 | – | – | 1.7 | 1.46 | – | 1.67 | 1.91 | 0.938 | 5.8 | 1.4 |
| O=C1c2ccccc2C2(O)N(c3ccccc3)C(=S)N(c3ccccc3)C12O (stereo not drawn) | > 100 | > 100 | > 100 | > 100 | > 100 | > 100 | > 100 | > 100 | > 100 | – | – | – | – | – | – | – | – | – | – | – |
| CN(C)CCNC(=O)c1cccc2c1nc(-c1cccnc1)c1ccccc12 | 6.32 | 12.5 | 54.8 | 24 | 24.6 | – | 25.3 | 19.9 | 34 | – | – | – | – | – | – | – | – | – | – | – |
| O=c1c2cc(Br)ccc2nc(CNc2ccccc2)n1-c1ccccc1 | > 67.7 | 45.4 | > 57 | 31.8 | 28.4 | 19.9 | 27.5 | 47.6 | > 100 | – | – | – | – | – | – | – | – | – | – | – |
| CN1S(=O)(=O)N(C)P12(N=P(CP(=NP13(N(C)S(=O)(=O)N1C)N(C)S(=O)(=O)N3C)(c1ccccc1)c1ccccc1)(c1ccccc1)c1ccccc1)N(C)S(=O)(=O)N2C | > 100 | > 100 | > 100 | > 100 | > 100 | > 100 | > 100 | > 100 | > 100 | – | – | – | – | – | – | – | – | – | – | – |
| CC(C)(C)C1CC[C@H]2c3c([nH]c4ccccc34)[C@H]3C(=O)N(c4ccc(F)cc4)C(=O)[C@H]3[C@H]2C1 (stereo partly drawn) | 27.8 | 26.4 | 25.2 | 20.8 | 23.5 | 25.3 | 35.8 | 38.4 | 80 | – | – | – | – | – | – | – | – | – | – | – |
| N#CC1(CCCCl)CCCCC1 | > 100 | > 100 | > 100 | > 100 | > 100 | > 100 | > 100 | > 100 | > 100 | – | – | – | – | – | – | – | – | – | – | – |
| O=S(=O)(Nc1ccccc1)c1ccc(C2CC3(Cl)C(Cl)=C(Cl)C2(Cl)C3(Cl)Cl)cc1 (stereo not drawn) | 6.84 | 3.72 | 10.9 | 5.52 | 4.23 | 5.67 | – | 4.61 | 5.46 | 2.5 | 1.96 | 3.52 | 2.25 | 2.15 | 2.27 | – | 2.36 | 2.54 | 6.82 | 2.19 |
| CC(C)CCCC(C)C1CCC2C3CC([N+](=O)[O-])=C4CC(O)CCC4(C)C3CCC12C (stereo not drawn) | 88.2 | – | 47.4 | 30.4 | 33 | 33.6 | 59.1 | 28.8 | – | – | – | – | – | – | – | – | – | – | – | – |
| O=S(=O)(O)C(c1ccccc1)C(O)c1ccccc1 (stereo not drawn) | – | > 100 | > 100 | > 100 | > 100 | > 100 | > 100 | > 100 | > 100 | – | – | – | – | – | – | – | – | – | > 100 | – |
| CCOC(=O)C1C(NC(N)=O)N(Cc2ccccc2)C(=O)N1Cc1ccccc1 (stereo not drawn) | > 100 | > 100 | > 100 | 32 | > 100 | > 100 | > 100 | > 100 | > 100 | – | – | – | – | – | – | – | – | – | – | – |
